Assay results: patent US9499509B2, “Dihydrochalcone derivatives and their use as antibiotic agents” (UNIVERSITÉ DU QUÉBEC À CHICOUTIMI, priority 2012, dated 2016)
Like-named read-outs stand apart in the source and are kept apart here.

Tests used:
[1] = system: methicillin-resistant Staphylococcus aureus (MRSA) strains; test: Antibiotic assay (resazurin, Example 1), MRSA strains; assay type: cell-based; details: for IC50: read-out: IC50
How it was run: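 Ten MRSA strains isolated from screening swabs (nares, throat, groin pus) of patients at Chicoutimi hospital were tested, with S. aureus wild-type strain ATCC25923 run alongside. Isolates were identified using the Slidex Staph-Kit and API Staph strips. Methicillin resistance was confirmed by PBP2a latex agglutination and by a Kirby-Bauer disk diffusion antibiogram on Muller-Hinton agar at 37° C.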

[2] = system: S. aureus wild type strain (ATCC 25923); test: Antibiotic assay (resazurin, Example 1), S. aureus wild type; assay type: cell-based, Staphylococcus aureus
Description: (§1) Bacteria Strain. […] The MRSA were obtained as further described below.
(§2) Antibiotic agents. Cyprofloxacin and erythromycin were provided by Sigma-Aldrich. Gentamicin sulfate and vancomycin hydrochloride were provided by Calbiochem.
MRSA. Ten (10) strains of MRSA obtained as described above were tested along with an S. aureus wild type (WT) strain (ATCC25923).

S. aureus = test: Antibiotic assay (resazurin, Example 1), S. aureus strains of Table 3; assay type: cell-based, Staphylococcus aureus; details: for IC50: read-out: IC50
Text: as §1, §2

Streptococcus pneumoniae = test: Antibiotic assay (resazurin, Example 1), Streptococcus pneumoniae; assay type: cell-based; details: for IC50: read-out: IC50
Description: as §1, §2
(§3) Five additional strains were tested: Streptococcus pneumoniae, Streptococcus agalactiae, Streptococcus pyogenes, Enterococcus faecalis and Corynebacterium jeikeium.

Enterococcus faecalis = test: Antibiotic assay (resazurin, Example 1), Enterococcus faecalis; assay type: cell-based; details: for IC50: read-out: IC50
Description: as §1, §2, §3

Corynebacterium jeikeium = test: Antibiotic assay (resazurin, Example 1), Corynebacterium jeikeium; assay type: cell-based; details: Coryne. jeikeium 14139
Description: as §1, §2, §3

Streptococcus pyogenes = test: Antibiotic assay (resazurin, Example 1), Streptococcus pyogenes; assay type: cell-based; details: for IC50: read-out: IC50
Description: as §1, §2, §3

WS-1 cell lines = test: Cytotoxicity assay on WS-1 (Example 1)
Description: Cytotoxicity assay. The cytotoxicity assay was performed in 96-well plates (BD Falcon). The WS-1 cell lines were provided by ATCC. The WS-1 was cultured in DMEM+10% fetal calf serum. The cells were plated in a volume of 100 μL at a density of 5000 cells per well and incubated at 37° C.+5% CO2 for 24 h to promote cell adhesion.
The plates were incubated at 37° C.+5% CO2 for 48 h. The cells were then washed with 100 μL of HBSS and 150 μL of a 2% resazurin were added to the wells.
The therapeutic index is the ratio between the toxicity on normal cells, in this case fibroblast, and the toxicity on bacteria.

S. epidermidis = test: Antibiotic assay (resazurin, Example 1), S. epidermidis strains

COc1cc(O)c(C(=O)CCc2ccc(O)cc2)c(O)c1C/C=C/c1ccc(O)cc1 [Compound I]
Minimum Inhibitory Concentration (MIC) ([1]; MRSA 1): (5.11) μM | IC50 ([1]; MRSA 1): 2.2 ± 0.2 µM | Minimum Inhibitory Concentration (MIC) ([1]; MRSA 2): (5.22) μM | IC50 ([1]; MRSA 2): 2.2 ± 0.2 µM | Minimum Inhibitory Concentration (MIC) ([1]; MRSA 3): (5.54) μM | IC50 ([1]; MRSA 3): 2.1 ± 0.2 µM | Minimum Inhibitory Concentration (MIC) ([1]; MRSA 4): (4.82) μM | IC50 ([1]; MRSA 4): 2.1 ± 0.2 µM | Minimum Inhibitory Concentration (MIC) ([1]; MRSA 5): (5.07) μM | IC50 ([1]; MRSA 5): 1.7 ± 0.2 µM | Minimum Inhibitory Concentration (MIC) ([1]; MRSA 6): (5.01) μM | IC50 ([1]; MRSA 6): 2 ± 0.2 µM | Minimum Inhibitory Concentration (MIC) ([1]; MRSA 7): (4.39) μM | IC50 ([1]; MRSA 7): 2.1 ± 0.2 µM | Minimum Inhibitory Concentration (MIC) ([1]; MRSA 8): (4.64) μM | IC50 ([1]; MRSA 8): 2.1 ± 0.2 µM | Minimum Inhibitory Concentration (MIC) ([1]; MRSA 9): (5.00) μM | IC50 ([1]; MRSA 9): 2.3 ± 0.2 µM | Minimum Inhibitory Concentration (MIC) ([1]; MRSA 10): (5.15) μM | IC50 ([1]; MRSA 10): 2.6 ± 0.2 µM | Minimum Inhibitory Concentration (MIC) ([2]; S. aureus WT (ATCC 25923)): (6.87) μM | IC50 ([2]; S. aureus WT (ATCC 25923), read-out: IC50): 2.8 ± 0.9 µM | IC50 ([2]; Table 5, same values as IC50 of Table 2, read-out: S. aureus WT ATCC 25923 (toxicity on bacteria)): 2.8 ± 0.9 µM | Minimum Inhibitory Concentration (MIC) (S. aureus; S. aureus 14094): (6.54) μM | IC50 (S. aureus; S. aureus 14094): 3.5 ± 0.3 µM | Minimum Inhibitory Concentration (MIC) (S. aureus; S. aureus 14108): (8.73) μM | IC50 (S. aureus; S. aureus 14108): 2.7 ± 0.3 µM | Minimum Inhibitory Concentration (MIC) (S. aureus; S. aureus 14118): (5.27) μM | IC50 (S. aureus; S. aureus 14118): 3.5 ± 0.1 µM | Minimum Inhibitory Concentration (MIC) (S. aureus; S. aureus 14154): (4.37) μM | IC50 (S. aureus; S. aureus 14154): 2.3 ± 0.1 µM | Minimum Inhibitory Concentration (MIC) (Streptococcus pneumoniae; Strep. pneumoniae 14070): (74.1) μM | IC50 (Streptococcus pneumoniae; Strep. pneumoniae 14070): 29 ± 5 µM | Minimum Inhibitory Concentration (MIC) (Streptococcus pneumoniae; Strep. pneumoniae 14112): (66.2) μM | IC50 (Streptococcus pneumoniae; Strep. pneumoniae 14112): 29 ± 3 µM | Minimum Inhibitory Concentration (MIC) (Streptococcus pneumoniae; Strep. pneumoniae 14138): (>200) μM | IC50 (Streptococcus pneumoniae; Strep. pneumoniae 14138): 142 ± 12 µM | Minimum Inhibitory Concentration (MIC) (Streptococcus pneumoniae; Strep. pneumoniae 14144): (>200) μM | IC50 (Streptococcus pneumoniae; Strep. pneumoniae 14144): > 200 µM | Minimum Inhibitory Concentration (MIC) (Streptococcus pneumoniae; Strep. pneumoniae 14148): (81.2) μM | IC50 (Streptococcus pneumoniae; Strep. pneumoniae 14148): 40 ± 4 µM | activity against Streptococcus pneumoniae 14070 strain (Streptococcus pneumoniae; in words): active | activity against Streptococcus pneumoniae strain 14112 (Streptococcus pneumoniae; in words): active | activity against Streptococcus pneumoniae strain 14138 (Streptococcus pneumoniae; in words): had an activity | activity against Streptococcus pneumoniae strain 14144 (Streptococcus pneumoniae; in words): not active | activity against Streptococcus pneumoniae strain 14148 (Streptococcus pneumoniae; in words): active | Minimum Inhibitory Concentration (MIC) (Enterococcus faecalis; Ent. Faecalis 14078): (>200) μM | IC50 (Enterococcus faecalis; Ent. Faecalis 14078): > 200 µM | Minimum Inhibitory Concentration (MIC) (Enterococcus faecalis; Ent. Faecalis 14115): (>200) μM | IC50 (Enterococcus faecalis; Ent. Faecalis 14115): > 200 µM | activity against Enterococcus faecalis (Enterococcus faecalis; in words): No activity | Minimum Inhibitory Concentration (MIC) (Corynebacterium jeikeium): (67.5) μM | IC50 (Corynebacterium jeikeium; read-out: IC50): 14 ± 3 µM | Minimum Inhibitory Concentration (MIC) (Streptococcus pyogenes; Strep. pyogenes 14149): (200) μM | IC50 (Streptococcus pyogenes; Strep. pyogenes 14149): 118 µM | Minimum Inhibitory Concentration (MIC) (Streptococcus pyogenes; Strep. pyogenes 14152): (>200) μM | IC50 (Streptococcus pyogenes; Strep. pyogenes 14152): 44 ± 10 µM | activity against Streptococcus pyogenes strain 14152 (Streptococcus pyogenes; in words): active | WS-1 (toxicity on normal cells, fibroblast) (WS-1 cell lines): 49 ± 9 | IC50 (S. epidermidis; S. epidermidis 14069): 5.3 ± 0.2 µM | Minimum Inhibitory Concentration (MIC) (S. epidermidis; S. epidermidis 14069): (19.9) μM | IC50 (S. epidermidis; S. epidermidis 14085): 4.5 ± 0.3 µM | Minimum Inhibitory Concentration (MIC) (S. epidermidis; S. epidermidis 14085): (23.5) μM | IC50 (S. epidermidis; S. epidermidis 14093): 8.6 ± 0.6 µM | Minimum Inhibitory Concentration (MIC) (S. epidermidis; S. epidermidis 14093): (11.6) μM | IC50 (S. epidermidis; S. epidermidis 14134): 3.7 ± 0.4 µM | Minimum Inhibitory Concentration (MIC) (S. epidermidis; S. epidermidis 14134): (19) μM | IC50 (S. epidermidis; S. epidermidis 14143): 6.7 ± 0.3 µM | Minimum Inhibitory Concentration (MIC) (S. epidermidis; S. epidermidis 14143): (15.2) μM | activity on S. epidermidis compared with ciprofloxacin (S. epidermidis; in words): more active than ciprofloxacin
